{
  "source": "patent US9943599B2",
  "about": "“Therapeutic applications of calcium electroporation to effectively induce tumor necrosis” (Herlev Hospital, priority 2011, dated 2018)",
  "key": {"[1]": {"tested_on": "H69 (human small cell lung cancer) tumors", "assay": "Histology, fraction of necrosis in H69 tumors", "format": "in vivo, NMRI-Foxn1^nu mice", "procedure": "At an average tumor size of 6.1 mm (range 5.8-6.6 mm) in largest diameter, the tumors are treated with 168 mM CaCl2 injection and electroporation as described in Example 3. Tumors are removed at skin level before treatment, 2 hours, 1, 2 and 6 days after treatment, fixated in formalin (10% neutrally buffered) and paraffin embedded. Subsequently, tissue sections with a thickness of 3 μm are HE-stained according to the routine procedure of the department. The fraction of necrosis within the tumor is estimated from HE-sections by stereological point counting using a light microscope, evaluated by a pathologist, blinded with respect to treatment status.\nThe difference in fraction of necrosis is assessed using one-way ANOVA with post least-squares-means test with Bonferroni correction for multiple comparisons."}, "[2]": {"tested_on": "skin dermis and subcutis above MDA-MB231 tumor", "assay": "Normal tissue reaction, skin above the tumor", "format": "in vivo, NMRI-Foxn1nu mice", "settings": "some of the mice treated with the high concentration and volume of calcium", "procedure": "MDA-MB231, a human breast cancer cell line was used for the in vivo experiments. The cells were tested by rapid MAP27 panel (Taconic, Hudson N.Y.) before use without signs of infection. Cells were maintained in vitro as described in Example 1. 2.5×10^6 cells/100 μl PBS were injected subcutaneously in the flank of NMRI-Foxn1nu mice (Harlan, Indianapolis, Ind.). Tumor pieces were transplanted twice from donor mice to the flank of nude mice that were 13-19 weeks old. HYPNORM™-DORMICUM™ (fentanyl/fluanisone/midazolam; VetaPharma, Leeds, U K and Roche, Basel, Switzerland) was used for anesthesia complemented with RIMADYL® (Carprofen) (Pfizer ApS, Ballerup, Denmark) as well as lidocaine (Region Hovedstadens Apotek, Herlev, Denmark) in the incision. […] Tumor volume was calculated as ab2n/6, where “a” is the largest diameter and “b” is the largest diameter perpendicular to “a”. […] Estimation of normal tissue damages was evaluated semiquantitatively on HE-sections by light[ ]microscopy (LEICA® DM 2000 light microscope, Leica Microsystems, Wetzlar, Germany).\nThe presence of inflammation in the skin dermis and subcutis was scored from 1-3 (1=minimal, 2=moderate and 3=severe). Edema in the dermis, extravasations of erythrocytes and vasculitis was noted if present, but not scored."}, "tumor on the heel joint": {"tested_on": "tumor on the heel joint", "assay": "Case study, calcium electroporation of canine tumor", "format": "in vivo, dog", "settings": "168 mM calcium chloride, 50% of tumor volume, 11 days after treatment", "procedure": "A seven year old Danish Pointer dog with a tumor on the heel joint was treated with calcium electroporation. The tumor was injected with 168 mM calcium chloride solution in a total volume equivalent to 50% of the tumor volume calculated as ab^2n/6, where “a” is the largest diameter of the tumor and “b” is the largest diameter perpendicular to “a”. The calcium chloride solution was injected throughout the tumor to secure an even distribution of calcium in the tumor. After the calcium injection the tumor was electroporated (8 pulses of […] at 1.0 kV/cm and 1 Hz) using a needle electrode and a square wave electroporator (CLINIPORATOR®, IGEA, Modena, Italy). The tumor was photographed before and after the treatment."}, "[3]": {"tested_on": "DC-3F, K-562 and Lewis Lung Carcinoma cells", "assay": "In vitro electroporation, MTT viability assay", "format": "cell-based, Chinese hamster, human, murine", "procedure": "Three cell lines are used for in vitro experiments, DC-3F, a transformed Chinese hamster lung fibroblast cell line; K-562, a human leukemia cell line; and Lewis Lung Carcinoma, a murine lung carcinoma cell line. DC-3F cells were tested for mycoplasma in January 2011, K-562 cells were tested for mycoplasma in 2008 prior to freezing and thawing just before experiments were performed, and Lewis Lung cells were tested by rapid MAP27 panel (Taconic, Hudson N.Y.) in July 2011 without signs of infection. Cells are maintained in RPMI 1640 culture medium (GIBCO™, Life Technologies, Carlsbad, Calif.) with 10% fetal calf serum (GIBCO™, Life Technologies, Carlsbad, Calif.), penicillin and streptomycin at 37° C. and 5% C02. After harvesting, cells are washed and diluted in HEPES buffer containing 10 mM HEPES (Lonza, Basel, Switzerland), 250 mM sucrose and 1 mM MgCl2 in sterile water. 270 μl cell suspension (6.1×10^6 cells/ml) and 30 μl CaCl2, or in the case of controls, HEPES buffer, are electroporated in 4 mm wide cuvettes with aluminium electrodes (Molecular BioProducts, Inc., San Diego, Calif.). Cooled cells (8° C.) are exposed to 8 pulses of 1.2 kV/cm with pulse duration of 99 μs (DC-3F and K562 cells) or 8 pulses of 1.4 kV/cm with pulse duration of 99 μs (Lewis Lung Carcinoma) using a BTX® T820 square wave electroporator (BTX®, Harvard Apparatus, Holliston, Mass.). The electroporation parameters are chosen after optimization to obtain high permabilisation and cell survival. After 20 min at 37° C. and 5% CO2 cells are diluted in RPMI 1640 culture medium with 10% fetal calf serum and penicillin-streptomycin and seeded in 96-well plates at a concentration of 3.1×10^4 cells/100 μl.\nDifference between electroporated and non-electroporated cells in identical buffer is assessed using two-way analysis of variance (ANOVA) with post least-squares-means test with Bonferroni correction for multiple comparisons."}},
  "note": "pEC50: −log10 of the molar value. Like-named read-outs stand apart in the source and are kept apart here.",
  "data": [
    {"smiles": "[Ca+2].[Cl-].[Cl-]", "note": "[calcium chloride]", "values": [
      {"measurement": "fraction of necrosis in tumors, course", "setting": "[1]; 168 mM CaCl2 with electroporation, 2 hours to 6 days", "result": "progressive necrosis"},
      {"measurement": "fraction of necrosis in tumors", "setting": "[1]; 6 days post treatment", "result": "complete"},
      {"measurement": "ulceration above the tumor", "setting": "[2]", "result": "ulceration above the tumor was seen"},
      {"measurement": "necrosis of tumor", "setting": "tumor on the heel joint", "result": "clinical signs of necrosis"},
      {"measurement": "tumor size (photos)", "setting": "tumor on the heel joint", "result": "reduced in size"},
      {"measurement": "pEC50", "setting": "[3]; all electroporated cell lines, 8 pulses 1.2-1.4 kV/cm, 99 μs, MTT 1 and 2 days after treatment, read-out: EC50 (decrease in viability)", "result": 3.24},
      {"measurement": "lowest concentration inducing high cell death", "setting": "[3]; electroporated", "result": 1, "unit": "mM"},
      {"measurement": "calcium concentration from which viability decreases significantly (p<0.01)", "setting": "[3]; electroporated, all cell lines", "result": "≥ 0.5", "unit": "mM"},
      {"measurement": "cell death after calcium electroporation", "setting": "[3]; electroporated, all three cell lines", "result": "dose dependent cell death"},
      {"measurement": "effect on cell viability", "setting": "[3]; non-electroporated cells, high calcium concentrations", "result": "no effect on cell viability"},
      {"measurement": "pEC50", "setting": "[3]; range over the electroporated cell lines, read-out: EC50 range (decrease in viability)", "result": "3.10 to 3.46"},
      {"measurement": "EC50 (decrease in viability)", "setting": "[3]; without electroporation", "result": "not reached"}
    ]}
  ]
}
